One test concerns S. aureus ATCC29213. Put plainly: MIC, broth microdilution, control strain. Type of test: cell-based, Staphylococcus aureus. Conditions: ISO 20776-1 (EUCAST 2019), performed twice in triplicate. The protocol:
(§1) Minimal Inhibitory Concentrations were measured by the broth microdilution method according to ISO standard 20776-1 (EUCAST 2019). S. aureus strains with pRMC2, pRMC2:vanZTei and pRMC2:vanZg plasmids were cultured in the presence of 25 μg/ml chloramphenicol and 100 ng/ml AnhTet (Sigma-Aldrich, Germany) to induce vanZ gene expression. All measurements were performed twice in triplicate. S. aureus ATCC29213 was used as a control. MIC values of clinically accepted glycopeptide antibiotics were interpreted according to EUCAST clinical breakpoints (EUCAST, 2019).

Test [1] relates to S. aureus RN4220 pRMC2:vanZg. Put plainly: MIC, broth microdilution, strain expressing vanZg. In kind it is cell-based, Staphylococcus aureus. Conditions: for MIC: S. aureus RN4220 vanZg, broth microdilution, ISO 20776-1, 25 μg/ml chloramphenicol and 100 ng/ml AnhTet, twice in triplicate; for decrease of susceptibility of S. aureus by expression of vanZg: MIC of RN4220 vanZg versus RN4220 pRMC2.
Excerpt: (§2) The vanZTei and vanZg genes and their ribosome binding sites were amplified from the plasmid pAT398 ([Arthur et al., 1995]) and E. faecium Aus0004 chromosomal DNA, respectively, using the primers TecVanZ_SacI_F, TecVanZ_R, gVanZ_SacI_F, and gVanZ_R (Supplementary Table S1). The PCR products were cloned into the pRMC2 shuttle vector under the control of the anhydrotetracycline (AnhTet)-inducible promoter Pxyl/tetO using SacI and EcoRI restriction sites, resulting in the constructs pRMC2:vanZTei and pRMC2:vanZg. The constructs were confirmed by sequencing and then electroporated into S. aureus RN4220. Using the same procedure, we prepared the constructs pRMC2:vanZTei-His and pRMC2:vanZg-His encoding C-terminal His-tagged VanZ variants. However, primers TecVanZhis_R and gVanZhis_R replaced the reverse primers TecVanZ_R and gVanZ_R.
as §1
In general terms: Dilution methods test growth across graded concentrations, often in twofold steps.

Another test relates to S. aureus RN4220 pRMC2. Put plainly: MIC, broth microdilution, empty vector strain. Type of test: cell-based, Staphylococcus aureus. Conditions: ISO 20776-1, 25 μg/ml chloramphenicol and 100 ng/ml AnhTet, twice in triplicate.
Excerpt: as §2, §1

For test [2], the system named is S. aureus RN4220 pRMC2:vanZTei. Put plainly: MIC, broth microdilution, strain expressing vanZTei. Conditions: for MIC: S. aureus RN4220 vanZTei, broth microdilution, ISO 20776-1, 25 μg/ml chloramphenicol and 100 ng/ml AnhTet, twice in triplicate; for decrease of susceptibility of S. aureus by expression of vanZTei: MIC of RN4220 vanZTei versus RN4220 pRMC2. In kind it is cell-based, Staphylococcus aureus.
Excerpt: as §2, §1

For test [3], the system named is S. pneumoniae R6 ΔvanZ:vanZ. Kind of test: MIC, broth microdilution, vanZ-reverted strain. In kind it is cell-based, Streptococcus pneumoniae.
Excerpt: (§3) Strain Sp539 (ΔvanZ) was constructed using a Sweet Janus cassette-based two-step negative selection strategy ([Sung et al., 2001]; [Li et al., 2014]). The Sweet Janus cassette contains the kanamycin resistance gene, the recessive rpsL gene and the sacB gene, which confers sucrose sensitivity (Su^S), as counterselectable markers. In the first step, 1000 bp fragments corresponding to the upstream and downstream flanking regions of the vanZ gene (spr0050) were amplified from the wild-type chromosomal DNA with the primer pairs KB60/KB61 and KB62/KB63, respectively. The Sweet Janus cassette (2807 bp) amplified from the Sweet Janus cassette DNA fragment with the primers DP1/DP2 was attached to the regions flanking vanZ by fusion PCR using primers KB60 and KB63. The resulting PCR fragment was used for the transformation of the S. pneumoniae R6 strain, and Kan^R/Su^S transformants (Sp537, vanZ:kan sacB) were selected. The PCR fragments consisting of the upstream and downstream flanking regions of the vanZ gene were amplified by the KB60/KB65 and KB64/KB63 primer pairs, respectively, and fused by overlap extension using primers KB60/KB63. The resulting fragment was transformed into the Sp537 strain to obtain Sp539 (Su^R/Kan^S). To complement the vanZ deletion, we constructed strain Sp635 (Su^R/Kan^S; ΔvanZ:vanZ) by transforming strain Sp537 (Kan^R/Su^S) with the PCR fragment amplified with the primers KB60 and KB63 that contained wild-type loci using R6 chromosomal DNA as a template.
as §1

For the next test, the system named is S. pneumoniae R6. Put plainly: MIC, broth microdilution, wild type. Type of test: cell-based, Streptococcus pneumoniae. Conditions: ISO 20776-1, twice in triplicate. As to the method: as §1
A further test concerns S. pneumoniae R6 ΔvanZ. Kind of test: MIC, broth microdilution, vanZ knockout. In kind it is cell-based, Streptococcus pneumoniae.
Excerpt: as §3, §1

Setting [4] is: S. aureus RN4220 pRMC2 (no VanZ).
[5] abbreviates: S. pneumoniae R6 ΔvanZ:vanZ (complemented), broth microdilution, ISO 20776-1, twice in triplicate.
The mark [6] stands for this setting: S. pneumoniae R6 ΔvanZ, broth microdilution, ISO 20776-1, twice in triplicate.
Where [7] appears, read: Staphylococcus aureus, ATCC29213, S. aureus ATCC 29213 (control), read-out: MIC.
Setting [8] is: Staphylococcus aureus, read-out: MIC.
Where [9] appears, read: Staphylococcus aureus, RN4220PRMC2, S. aureus RN4220 pRMC2 (no VanZ), read-out: MIC.
[10] abbreviates: Streptococcus pneumoniae, read-out: MIC.

The values below come from article PMC7146870, “VanZ Reduces the Binding of Lipoglycopeptide Antibiotics to Staphylococcus aureus and Streptococcus pneumoniae Cells” (Frontiers in Microbiology, 2020).

In brackets after ≈: the same amount, converted by molar mass. Read-outs that look alike come from different tables or passages of the source.

Broadly, the MIC is the least concentration at which growth counts as inhibited. Regarding vancomycin, the minimum inhibitory concentration (MIC) in the test with S. aureus ATCC29213 (S. aureus ATCC 29213 (control)) is 0.25 µg/mL; in test [1] it was 1 µg/mL; against S. aureus RN4220 pRMC2 (setting [4]), 0.5 µg/mL; in test [2], 0.5 µg/mL; in test [3] (setting [5]), 0.25 µg/mL; against S. pneumoniae R6, 0.25 µg/mL. In the test on S. pneumoniae R6 ΔvanZ (setting [6]), this compound registered an MIC of 0.25 µg/mL. For the same compound, in the test on S. pneumoniae R6 ΔvanZ (MIC of S. pneumoniae R6 ΔvanZ versus R6), the “sensitivity of the ΔvanZ mutant compared with the wild-type strain” value is on record as “not”.
With `CNC(C)C1CCC(N)C(OC2C(N)CC(N)C(OC3OCC(C)(O)C(NC)C3O)C2O)O1` (centres unmarked) [GEN, gentamicin], the MIC in the test on S. aureus ATCC29213 (setting [7]) was 1 µg/mL (≈ 2.09 µM); in test [1] (setting [8]) it was 1 µg/mL (≈ 2.09 µM); with S. aureus RN4220 pRMC2 (setting [9]), 1 µg/mL (≈ 2.09 µM); in test [2] (setting [8]), 1 µg/mL (≈ 2.09 µM); in test [3] (Streptococcus pneumoniae), 0.25 µg/mL (≈ 0.523 µM); in the test with S. pneumoniae R6 (setting [10]), 0.25 µg/mL (≈ 0.523 µM). Further, the MIC with S. pneumoniae R6 ΔvanZ (Streptococcus pneumoniae) came to 0.25 µg/mL (≈ 0.523 µM).
For dalbavancin, the MIC came to 0.125 µg/mL against S. aureus ATCC29213 (S. aureus ATCC 29213 (control)), 0.5 µg/mL in test [1], 0.03125 µg/mL in the test with S. pneumoniae R6 and 0.0078 µg/mL against S. pneumoniae R6 ΔvanZ (setting [6]). Besides, the “decrease of susceptibility of S. aureus by expression of vanZg” value (shortened to “decrease of susceptibility … of vanZg”) in test [1] is reported as “four-fold”. In addition, the “decrease of susceptibility of S. aureus by expression of vanZTei” value (“decrease of susceptibility … of vanZTei” for short) in test [2] is “less or no activity”.
As for `CC[C@H]1OC(=O)[C@H](C)[C@@H](O[C@H]2C[C@@](C)(OC)[C@@H](O)[C@H](C)O2)[C@H](C)[C@@H](O[C@@H]2O[C@H](C)C[C@H](N(C)C)[C@H]2O)[C@](C)(O)C[C@@H](C)C(=O)[C@H](C)[C@@H](O)[C@]1(C)O` [ERY, erythromycin], the MIC (with S. aureus ATCC29213 (setting [7]); in test [1] (setting [8]); with S. aureus RN4220 pRMC2 (setting [9]); in test [2] (setting [8]); in test [3] (Streptococcus pneumoniae); in the test with S. pneumoniae R6 (setting [10])) was 0.125 µg/mL (≈ 0.17 µM) each time. In the test with S. pneumoniae R6 ΔvanZ (Streptococcus pneumoniae), 0.125 µg/mL (≈ 0.17 µM) was the least that counted as inhibitory (MIC).
`CC1(C)S[C@@H]2[C@H](NC(=O)C(C(=O)O)c3ccccc3)C(=O)N2[C@H]1C(=O)O` (some centres unmarked) [CARB, carbenicillin]: the minimum inhibitory concentration (MIC) is 0.25 µg/mL (≈ 0.661 µM) in the test on S. aureus ATCC29213 (setting [7]); 0.25 µg/mL (≈ 0.661 µM) in test [1] (setting [8]); 0.25 µg/mL (≈ 0.661 µM) in the test on S. aureus RN4220 pRMC2 (setting [9]); 0.25 µg/mL (≈ 0.661 µM) in test [2] (setting [8]); 0.0625 µg/mL (≈ 0.165 µM) in test [3] (Streptococcus pneumoniae); 0.0625 µg/mL (≈ 0.165 µM) in the test on S. pneumoniae R6 (setting [10]). Also, 0.0625 µg/mL (≈ 0.165 µM) was the least that counted as inhibitory against S. pneumoniae R6 ΔvanZ (Streptococcus pneumoniae) (MIC).
Consider teicoplanin, for which the MIC against S. aureus ATCC29213 (S. aureus ATCC 29213 (control)) came to 0.125 µg/mL; in test [1], 8 µg/mL; in the test with S. aureus RN4220 pRMC2 (setting [4]), 0.5 µg/mL; in test [2] it was 1 µg/mL; against S. pneumoniae R6, 0.125 µg/mL; in the test on S. pneumoniae R6 ΔvanZ (setting [6]), 0.03125 µg/mL. Moreover, the “decrease of susceptibility … of vanZg” value in test [1] is listed as 16 fold. In addition, the “decrease of susceptibility … of vanZTei” value in test [2] was “less or no activity”.
Regarding oritavancin, the minimal inhibitory concentration (MIC) in the test with S. aureus ATCC29213 (S. aureus ATCC 29213 (control)) worked out at 0.125 µg/mL; in test [1], 0.25 µg/mL; in test [3] (setting [5]), 0.0078 µg/mL; with S. pneumoniae R6, 0.0078 µg/mL; against S. pneumoniae R6 ΔvanZ (setting [6]), 0.0039 µg/mL. For the same compound, the “decrease of susceptibility … of vanZg” value in test [1] is “two times”. The “decrease of susceptibility … of vanZTei” value in test [2] is “less or no activity”.
